Results taken from patent publication US5569655A, “Substituted heterocyclylisoquinolinium salts and compositions and method of use thereof” (Sterling Winthrop Inc., priority 1994, dated 1996).
pIC50, pKi: −log10 of the molar value.

Tests used:
[1] = system: NMDA-induced neurotoxicity in cultured cortical neurons; test: Antagonism of NMDA-induced neurotoxicity in cultured neurons; type: cell-based, mouse (Swiss-Webster); details: 500 μM NMDA for 30 minutes, LDH activity after 24 hours
Protocol: Antagonism of NMDA-induced Neurotoxicity in Cultured Neurons
Preparation of cultured cortical neurons
Pregnant, Swiss-Webster mice were obtained from Taconic Farms (Germantown, N.Y.) and sacrificed 16 days post conception. Fetuses were removed and placed in a sterile dish containing Hank's balanced salt solution (HBSS), pH 7.4. Brain cortices were dissected, meninges were removed, the tissue was minced and placed into a solution of HBSS containing 0.25% (w/v) trypsin at 37° C. for 15 minutes. Tissue was then triturated with a sterile pasteur pipet, diluted with minimal essential media (Gibco 330-1430), pH 7.4, supplemented with 10% horse serum, 10% fetal calf serum, 2 mM 1-glutamine, 21 mM d-glucose, 2.2 g/L sodium bicarbonate, 1000 U/ml penicillin, and 1,000 μg/ml streptomycin. Cells were plated onto Falcon primaria 96 well plates at a final density of 50,000 cells/well and incubated at 37° C. in the presence of 5% (v/v) carbon dioxide. After 5 days, plating media was replaced with maintenance media containing minimal essential media (Gibco 330-1430), pH 7.4, supplemented with 10% horse serum, 10% 1-glutamine, 21 mM D-glucose, 2.2 g/l sodium bicarbonate,1,000 U/ml penicillin, 1,000 μg/ml streptomycin, and 10 μM cytosine arabinoside. On days 7 and 10, media was replaced with maintenance media as above lacking the cytosine arabinoside. Experiments were conducted on day 13.
Neuroprotection Assessment
Day 13 cultured cortical neurons were washed twice with minimal essential media, pH 7.4 and then exposed for 30 minutes to 500 μM N-methyl-D-aspartic acid (NMDA) with or without varying concentrations of test agents. […] MK-801 and test agents were prepared in minimal essential media supplemented with 21 mM d-glucose and 2.2 g/L sodium bicarbonate (MEM). After 30 minutes, media was replaced with MEM alone. Exposure of neurons to test agents was limited to the NMDA treatment period. Twenty-four hours after removal of NMDA, an aliquot of media from each well was removed for assessment of cell injury by determining lactate dehydrogenase (LDH) activity by the method of Wroblewski and LaDue Proc. Soc. Exp. Biol. Med. 1955, 90, 210-213. The results are expressed as an IC50 (in nM) value (concentration causing 50% inhibition) for the antagonism of NMDA-induced neurotoxicity.
(§1) Table 4 summarizes the results obtained from the testing of representative compounds of the invention in the [^3 H]TCP radioreceptor assay as well as in the antagonism of NMDA-induced neurotoxicity in cultured neurons.

[2] = target: PCP recognition sites (PCP receptor); test: [3H]TCP radioreceptor assay (binding to PCP recognition sites); parameters: species or system rat (male Sprague-Dawley; details: rat whole brain membranes, approx. 1 nM [3H]TCP; mean of at least two determinations
Protocol: [^3 H]TCP Radioreceptor Assay
[^3 H]TCP binding to PCP recognition sites was performed as described by Vignon et al. Brain Research 1983, 280, 194-197. Male Sprague-Dawley rats were sacrificed by decapitation, and whole brains were homogenized in 10 volumes (wt/vol) of cold Tris-HCl buffer (50 mM, pH 7.7) using a Brinkmann Polytron (setting 6, 30 sec). The homogenate was centrifuged at 40,000×g for 10 min at 4° C. The supernatant was decanted, and the homogenization and centrifugation steps were repeated twice as described above. Following this, the pellet was resuspended in Tris-HCl (5 mM, pH 7.7) at a tissue concentration of 0.5-0.75 g/ml, and one ml aliquots were frozen at -70° C. until use. The binding characteristics for PCP recognition sites were not altered by the freezing of membrane suspensions.
On the day of the assay, membrane aliquots were thawed, resuspended in fresh 5 mM Tris-HCl buffer at a tissue concentration of 1 mg/ml, and stored on ice until use. Each assay tube contained 100 μl of [^3 H]TCP at a final concentration of approximately 1 nM, 100 μl of various concentrations of the compounds of interest, 500 μl of the tissue suspension and 300 μl of buffer to a final assay volume of 1 ml and a final protein concentration of 0.5 mg/tube. Non-specific binding was defined by addition of a final concentration of 100 μM PCP to blank tubes. All tubes were incubated at room temperature for 25 min before termination of the reaction by rapid filtration over Whatman GF/B glass fiber filters that had been presoaked in a solution of 0.5% polyethylenimine for at least 1 hr prior to use. Filters were washed with three 4 ml volumes of cold Tris buffer. Following addition of scintillation cocktail, the amount of bound radioactivity was determined by liquid scintillation spectrometry using a Beckman LS 5000TA liquid scintillation counter with an efficiency for tritium of approximately 55%. Inhibition constants (Ki values) were calculated using the EBDA/LIGAND program (McPherson, J. Pharmacol. Meth. 1985, 14, 213-228), purchased from Elsevier/Biosoft, Inc. The results are reported as Ki values (in nM) which are expressed as the mean of at least two separate determinations, or as a percent (%) inhibition of binding at 10 μM.
as §1

Structure (SMILES) | pIC50 ([1]; Mus musculus, Cortical neurone) | pKi [2] | pIC50 [1]
CCOC1(OCC)C2c3c(OC)cccc3C([n+]3ccsc32)C1(C)C (stereo not shown) [6(d), 11,11-diethoxy-12,12-dimethyl-9-methoxy-5,10-ethano-5,10-dihydrothiazolo[3,2-b]isoquinolinium chloride] | 7.10 | 8.04 | –
Cc1c[n+]2c(s1)C1c3ccccc3C2CC1(c1ccoc1)c1ccoc1 (stereo not shown) [16(E), 11,11-di(3-furyl)-5,10-ethano-5,10-dihydro-2-methylthiazolo[3,2-b]isoquinolinium chloride] | 6.57 | 7.96 | –
Oc1cccc2c1C1c3scc[n+]3C2CC1(c1ccoc1)c1ccoc1 (stereo not shown) [206(f), 11,11-di(3-furyl)-9-hydroxy-5,10-ethano-5,10-dihydrothiazolo[3,2-b]isoquinolinium chloride] | 7.68 | 8.73 | –
Cc1csc2[n+]1C1CC(c3ccoc3)(c3ccoc3)C2c2ccccc21 (stereo not shown) [15(F), 11,11-di(3-furyl)-5,10-ethano-5,10-dihydro-3-methylthiazolo[3,2-b]isoquinolinium chloride] | 6.52 | 7.70 | –
c1ccc2c(c1)C1CC(c3ccoc3)(c3ccoc3)C2c2scc[n+]21 (single isomer, unassigned; (+)) [5(e), (+)-11,11-di(3-furyl)-5,10-ethano-5,10-dihydrothiazolo[3,2-b]isoquinolinium chloride] | – | 8.70 | 7.70
